Data from patent EP0847397B1, “WATER-SOLUBLE C-RING ANALOGUES OF 20 (S)-CAMPTOTHECIN” (DR. REDDY'S RESEARCH FOUNDATION, priority 1996, dated 1997).

Tests used:
[1] = compared with 20(RS)-camptothecin of the formula 8; cited from earlier work
topoisomerase I = topoisomerase I (Homo sapiens, UniProt P11387); details: result in words; cited from earlier work
CAKI = test: NCI in vitro 60 human tumor cell line assay; assay type: cell-based; details: CAKI, RENAL CANCER, 48h, read-out: Total Growth Inhibition (TGI)
Method: (§1) Each test compound was screened against a battery of 60 human cell lines obtained from eight organs. In a typical procedure, the cell suspensions that were diluted according to the particular cell type and the expected target cell density (5000-40,000 cells per well based on cell growth characteristics) were added into 96-well microtiter plates. Inoculates were allowed a preincubation period of 24h at 37°C. for stabilization. Dilutions at twice the intended test concentrations were added at time zero in 100-µl aliquots to microtiter plate wells. Usually test compounds were evaluated at five 10-fold dilutions. The highest well concentration used in the test is 10^-4M. The cells are then incubated in the presence of drug (the test compound) for further 48h in 5% CO2 atmosphere and 100% humidity. At the end of this time, the adherent cells are fixed to the plate by means of trichloroacetic acid, and after a number of washes, the cell layer is treated with the protein stain Sulforhodamine B. The optical density which is proportional to protein mass, is then read by automated spectrophotometric plate readers at a wavelength of 515 nm. Readings are transferred to a microcomputer and final reports are generated using especially developed software.

HOP 92 = test: NCI in vitro 60 human tumor cell line assay; assay type: cell-based; details: HOP 92, NSLC, 48h, read-out: Total Growth Inhibition (TGI)
HCC 2998 = test: NCI in vitro 60 human tumor cell line assay; assay type: cell-based; details: HCC 2998, COLON CANCER, 48h
Method: as §1

H 522 = test: NCI in vitro 60 human tumor cell line assay; assay type: cell-based; details: NCI-H522, H 522, NSLC, 48h, read-out: Total Growth Inhibition (TGI)
Method: as §1

H 460 = test: NCI in vitro 60 human tumor cell line assay; assay type: cell-based; details: H 460, NSLC, 48h
Method: as §1

HT 29 = test: NCI in vitro 60 human tumor cell line assay; assay type: cell-based
Method: as §1

[2] = NCI in vitro 60 human tumor cell line assay; assay type: cell-based; details: HCT 166, COLON CANCER, 48h, read-out: Total Growth Inhibition (TGI)
Method: as §1

SN12C = test: NCI in vitro 60 human tumor cell line assay; assay type: cell-based; details: RENAL CANCER, 48h, read-out: Total Growth Inhibition (TGI)
Method: as §1

COLO 205 = test: NCI in vitro 60 human tumor cell line assay; assay type: cell-based; details: COLO 205, COLON CANCER, 48h, read-out: Total Growth Inhibition (TGI)
Method: as §1

HOP 62 = test: NCI in vitro 60 human tumor cell line assay; assay type: cell-based; details: HOP 62, NSLC, 48h, read-out: Total Growth Inhibition (TGI)
HCT 15 = test: NCI in vitro 60 human tumor cell line assay; assay type: cell-based; details: HCT 15, COLON CANCER, 48h, read-out: Total Growth Inhibition (TGI)
Method: as §1

H 226 = test: NCI in vitro 60 human tumor cell line assay; assay type: cell-based; details: NCI-H226, H 226, NSLC, 48h, read-out: Total Growth Inhibition (TGI)
Method: as §1

BT 549 = test: NCI in vitro 60 human tumor cell line assay; assay type: cell-based; details: BT 549, BREAST, 48h, read-out: Total Growth Inhibition (TGI)
Method: as §1

HCT 116 = test: NCI in vitro 60 human tumor cell line assay; assay type: cell-based; details: HCT 116, COLON CANCER, 48h, read-out: Total Growth Inhibition (TGI)
MOLT 4 = test: NCI in vitro 60 human tumor cell line assay; assay type: cell-based; details: MOLT 4, […], 48h, read-out: Total Growth Inhibition (TGI)
Method: as §1

H 322M = test: NCI in vitro 60 human tumor cell line assay; assay type: cell-based; details: NCI-H322M, H 322M, NSLC, 48h, read-out: Total Growth Inhibition (TGI)
Method: as §1

MDA-MB-435 = test: NCI in vitro 60 human tumor cell line assay; assay type: cell-based; details: MDA-MB-435, BREAST, 48h, read-out: Total Growth Inhibition (TGI)
OVCAR 8 = test: NCI in vitro 60 human tumor cell line assay; assay type: cell-based; details: OVCAR 8, OVARIAN, 48h, read-out: Total Growth Inhibition (TGI)
Method: (§2) Each test compound was screened against a battery of 60 human cell lines obtained from eight organs. In a typical procedure, the cell suspensions that were diluted according to the particular cell type and the expected target cell density (5000-40,000 cells per well based on cell growth characteristics) were added into 96-well microtiter plates. Inoculates were allowed a preincubation period of 24h at 37°C. for stabilization. Dilutions at twice the intended test concentrations were added at time zero in 100-µl aliquots to microtiter plate wells. Usually test compounds were evaluated at five 10-fold dilutions. The highest well concentration used in the test is 10^-4M. The cells are then incubated in the presence of drug (the test compound) for further 48h in 5% CO2 atmosphere and 100% humidity. At the end of this time, the adherent cells are fixed to the plate by means of trichloroacetic acid, and after a number of washes, the cell layer is treated with the protein stain Sulforhodamine B. The optical density which is proportional to protein mass, is then read by automated spectrophotometric plate readers at a wavelength of 515 nm.

A 498 = test: NCI in vitro 60 human tumor cell line assay; assay type: cell-based; details: A498, A 498, RENAL CANCER, 48h, read-out: Total Growth Inhibition (TGI)
Method: as §1

RXF 393 = test: NCI in vitro 60 human tumor cell line assay; assay type: cell-based; details: RXF 393, RENAL CANCER, 48h, read-out: Total Growth Inhibition (TGI)
Method: as §1

MCF 7 = test: NCI in vitro 60 human tumor cell line assay; assay type: cell-based; details: MCF7, MCF 7, BREAST, 48h, read-out: Total Growth Inhibition (TGI)
Method: as §1

T 47D = test: NCI in vitro 60 human tumor cell line assay; assay type: cell-based; details: T47D, T 47D, BREAST, 48h, read-out: Total Growth Inhibition (TGI)
Method: as §1

SK OV3 = test: NCI in vitro 60 human tumor cell line assay; assay type: cell-based; details: SK-OV-3, SK OV3, OVARIAN, 48h, read-out: Total Growth Inhibition (TGI)
Method: as §2

MCF 7/ ADR = test: NCI in vitro 60 human tumor cell line assay; assay type: cell-based; details: MCF 7/ ADR, BREAST, 48h
Method: as §1

SF 268 = test: NCI in vitro 60 human tumor cell line assay; assay type: cell-based; details: SF-268, 48 h, read-out: Total Growth Inhibition (TGI)
Method: as §2

KM 12 = test: NCI in vitro 60 human tumor cell line assay; assay type: cell-based; details: KM12, KM 12, COLON CANCER, 48h, read-out: Total Growth Inhibition (TGI)
Method: as §1

EKVX = test: NCI in vitro 60 human tumor cell line assay; assay type: cell-based; details: NSLC, 48h, read-out: Total Growth Inhibition (TGI)
Method: as §1

UO 31 = test: NCI in vitro 60 human tumor cell line assay; assay type: cell-based; details: UO 31, RENAL, 48h, read-out: Total Growth Inhibition (TGI)
Method: as §1

786-O = test: NCI in vitro 60 human tumor cell line assay; assay type: cell-based; details: 786-0, 786-O, RENAL CANCER, 48h, read-out: Total Growth Inhibition (TGI)
Method: as §2

MCF7 / ADR / RES = test: NCI in vitro 60 human tumor cell line assay; assay type: cell-based; details: MCF7 / ADR / RES, BREAST CANCER, 48h, read-out: Total Growth Inhibition (TGI)
Method: as §1

U 251 = test: NCI in vitro 60 human tumor cell line assay; assay type: cell-based; details: U 251, CNS, 48h, read-out: Total Growth Inhibition (TGI)
Method: as §1

SF 295 = test: NCI in vitro 60 human tumor cell line assay; assay type: cell-based; details: SF 295, CNS, 48h, read-out: Total Growth Inhibition (TGI)
Method: as §1

ACHN = test: NCI in vitro 60 human tumor cell line assay; assay type: cell-based; details: RENAL CANCER, 48h, read-out: Total Growth Inhibition (TGI)
Method: as §1

H 23 = test: NCI in vitro 60 human tumor cell line assay; assay type: cell-based; details: NCI-H23, H 23, NSLC, 48h, read-out: Total Growth Inhibition (TGI)
Method: as §1

Sequence of topoisomerase I (P11387 whole entry): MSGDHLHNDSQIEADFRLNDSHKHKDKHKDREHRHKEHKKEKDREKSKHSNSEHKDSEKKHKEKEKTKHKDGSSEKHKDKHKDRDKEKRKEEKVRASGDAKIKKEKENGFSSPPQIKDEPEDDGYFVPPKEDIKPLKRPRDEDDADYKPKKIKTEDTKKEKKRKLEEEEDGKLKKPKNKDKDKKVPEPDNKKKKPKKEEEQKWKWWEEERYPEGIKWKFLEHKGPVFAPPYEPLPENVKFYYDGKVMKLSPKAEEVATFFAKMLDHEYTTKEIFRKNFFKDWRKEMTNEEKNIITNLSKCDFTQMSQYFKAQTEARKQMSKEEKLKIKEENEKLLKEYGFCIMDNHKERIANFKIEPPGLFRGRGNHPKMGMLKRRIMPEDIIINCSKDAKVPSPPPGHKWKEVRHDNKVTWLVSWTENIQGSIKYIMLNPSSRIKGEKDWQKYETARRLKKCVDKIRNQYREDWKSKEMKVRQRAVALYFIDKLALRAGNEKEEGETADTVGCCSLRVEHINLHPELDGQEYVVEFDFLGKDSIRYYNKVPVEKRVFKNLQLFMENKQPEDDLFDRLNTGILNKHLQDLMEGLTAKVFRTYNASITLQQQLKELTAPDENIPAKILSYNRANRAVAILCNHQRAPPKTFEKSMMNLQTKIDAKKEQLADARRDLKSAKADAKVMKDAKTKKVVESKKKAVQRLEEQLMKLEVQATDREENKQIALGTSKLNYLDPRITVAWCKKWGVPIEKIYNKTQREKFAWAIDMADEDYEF

Compound: CCc1c2c(nc3ccc(OC)cc13)-c1cc3c(c(=O)n1C2)COC(=O)[C@]3(N)CC [formula 7, 7-ethyl-10-methoxycamptothecin derivative]
- in vivo antitumor activity [1]: increased in vivo antitumor activity

Compound: C=C1C(=O)OCc2c1cc1n(c2=O)Cc2c-1nc1ccc(O)cc1c2CC [formula 9, 18-noranhydrocamptothecin analogue]
- inhibition of topoisomerase I activity (topoisomerase I): potent camptothecin like inhibition of topoisomerase I activity

Compound: CC[C@@]1(O)C(=O)OCc2c1cc1n(c2=O)Cc2cc3c(CN(C)C)c(O)ccc3nc2-1 [TOPOTECAN, topotecan, reference compound]
- IC (TGI) (CAKI): 510 nM
- IC (TGI) (HOP 92): 7900 nM
- Total Growth Inhibition (TGI) (HCC 2998): 15.80 μm
- IC (TGI) (HCC 2998; Homo sapiens, read-out: Total Growth Inhibition (TGI)): 15800 nM
- IC (TGI) (H 522): 4160 nM
- Total Growth Inhibition (TGI) (H 460): 1.20 μm
- IC (TGI) (H 460; Homo sapiens, NCI-H460, read-out: Total Growth Inhibition (TGI)): 1200 nM
- Total Growth Inhibition (TGI) (HT 29): 100 μm
- IC (TGI) (HT 29; Homo sapiens, HT-29, 48 h, read-out: Total Growth Inhibition (TGI)): > 100000 nM
- IC (TGI) [2]: 2510 nM
- IC (TGI) (SN12C): 1580 nM
- IC (TGI) (COLO 205): 7940 nM
- IC (TGI) (HOP 62): 40 nM
- IC (TGI) (HCT 15): 44600 nM
- IC (TGI) (H 226): 11000 nM
- IC (TGI) (BT 549): > 100000 nM
- IC (TGI) (HCT 116): 2510 nM
- IC (TGI) (MOLT 4): 1200 nM
- IC (TGI) (H 322M): 16900 nM
- IC (TGI) (MDA-MB-435): 2500 nM
- IC (TGI) (OVCAR 8): 18200 nM
- IC (TGI) (A 498): 1690 nM
- IC (TGI) (RXF 393): 1410 nM
- IC (TGI) (MCF 7): 100000 nM
- IC (TGI) (T 47D): 1800 nM
- IC (TGI) (SK OV3): 5120 nM
- IC (TGI) (MCF 7/ ADR; Homo sapiens, NCI/ADR-RES, read-out: Total Growth Inhibition (TGI)): 1500 nM
- Total Growth Inhibition (TGI) (MCF 7/ ADR): 1.5 μm
- IC (TGI) (SF 268): 56000 nM
- IC (TGI) (KM 12): 6450 nM
- IC (TGI) (EKVX): 100000 nM
- IC (TGI) (UO 31): 2510 nM
- IC (TGI) (786-O): 120 nM
- IC (TGI) (MCF7 / ADR / RES): 1500 nM
- IC (TGI) (U 251): 2810 nM
- IC (TGI) (SF 295): 2180 nM
- IC (TGI) (ACHN): 280 nM
- IC (TGI) (H 23): 870 nM
